Measurements published in patent publication US20100298141A1, “SUBSTITUTED PYRIDINE N-OXIDE HERBICIDES” (E. I. DU PONT DE NEMOURS AND COMPANY, priority 2007, published 2010).

Tests used:
barnyardgrass = test: Test C flooded paddy test; format: in vivo, Echinochloa crus-galli; details: Flood
Summary of the method: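 Compound was added to standing water 3 cm above soil, flood maintained, and plants held in a greenhouse before visual scoring against controls at 13 to 15 days.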

cocklebur = test: Test C pre-/postemergence test; format: in vivo, Xanthium strumarium; details: for Plant response rating, Cocklebur: scale 0 to 100, 0 no effect, 100 complete control
Summary of the method: (§1)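 Test chemicals were formulated with surfactant in a non-phytotoxic solvent and sprayed both on freshly planted seeds (preemergence) and on 1- to 4-leaf plants of 2–18 cm (postemergence). Flooded-paddy pots received compound directly into 3 cm of standing water, maintained for the test.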

giant foxtail = test: Test C pre-/postemergence test; format: in vivo, Setaria faberii; details: for Plant response rating, Foxtail, Giant: scale 0 to 100, 0 no effect, 100 complete control
Summary of the method: as §1

green foxtail = test: Test C pre-/postemergence test; format: in vivo, Setaria viridis; details: for Plant response rating, Foxtail, Green: scale 0 to 100, 0 no effect, 100 complete control
Summary of the method: as §1

Italian ryegrass = test: Test C pre-/postemergence test; format: in vivo, Lolium multiflorum; details: for Ryegrass, Italian plant response rating: preemergence, scale 0 (no effect) to 100 (complete control); for Plant response rating, Ryegrass, Italian: scale 0 to 100, 0 no effect, 100 complete control
Summary of the method: as §1

wild oat = test: Test C pre-/postemergence test; format: in vivo, Avena fatua; details: for Plant response rating, Oat, Wild: scale 0 to 100, 0 no effect, 100 complete control
Summary of the method: as §1

woolly cupgrass = test: Test C pre-/postemergence test; format: in vivo, Eriochloa villosa; details: for Plant response rating, Cupgrass, Woolly: scale 0 to 100, 0 no effect, 100 complete control
Summary of the method: as §1

downy brome = test: Test C pre-/postemergence test; format: in vivo, Bromus tectorum; details: for Plant response rating, Bromegrass, Downy: scale 0 to 100, 0 no effect, 100 complete control
Summary of the method: as §1

velvetleaf [1] = test: Test C pre-/postemergence test; format: in vivo, Abutilon theophrasti; details: Postemergence; for Plant response rating, Velvetleaf: scale 0 to 100, 0 no effect, 100 complete control
Summary of the method: as §1

soybean = test: Test C pre-/postemergence test; format: in vivo, Glycine max; details: for Plant response rating, Soybean: scale 0 to 100, 0 no effect, 100 complete control
Summary of the method: as §1

catchweed bedstraw = test: Test C pre-/postemergence test; format: in vivo, Galium aparine
Text: Seeds of plant species selected from blackgrass (Alopecurus myosuroides), downy brome (Bromus tectorum), green foxtail (Setaria viridis), Italian ryegrass (Lolium multiflorum), wheat (Triticum aestivum), wild oat (Avena fatua), catchweed bedstraw (Galium aparine), Russian thistle (Salsola kali), […] (Cynodon dactylon), Surinam grass (Brachiaria decumbens), cocklebur (Xanthium strumarium), corn (Zea mays), crabgrass (Digitaria sanguinalis), woolly cupgrass (Eriochloa villosa), giant foxtail (Setaria faberii), Goosegrass (Eleusin indica), johnsongrass (Sorghum halepense), kochia (Kochia scoparia), lambsquarters (Chenopodium album), morningglory (Ipomoea coccinea), eastern black nightshade (Solanum ptycanthum), yellow nutsedge (Cyperus esculentus), pigweed (Amaranthus retroflexus), common ragweed (Ambrosia elation), soybean (Glycine max), common (oilseed) sunflower (Helianthus annuus), and velvetleaf (Abutilon theophrasti) were planted and treated preemergence with test chemicals formulated in a non-phytotoxic solvent mixture which included a surfactant. At the same time, plants selected from these crop and weed species and also winter barley (Hordeum vulgare), canarygrass (Phalaris minor), and chickweed (Stellaria media) were treated with postemergence applications of some of the test chemicals formulated in the same manner. Plants ranged in height from 2 to 18 cm (1- to 4-leaf stage) for postemergence treatments. […] At time of treatment, test pots were flooded to 3 cm above the soil surface, treated by application of test compounds directly to the paddy water, and then maintained at that water depth for the duration of the test. […] A dash (-) response means no test result.

morningglory = test: Test C pre-/postemergence test; format: in vivo, Ipomoea coccinea; details: for Plant response rating, Morningglory: Postemergence, scale 0 to 100, 0 no effect, 100 complete control
Summary of the method: as §1

johnsongrass = test: Test C pre-/postemergence test; format: in vivo, Sorghum halepense; details: for Plant response rating, Johnsongrass: scale 0 to 100, 0 no effect, 100 complete control
Summary of the method: as §1

corn = test: Test C pre-/postemergence test; format: in vivo, Zea mays; details: for Plant response rating, Corn: scale 0 to 100, 0 no effect, 100 complete control
Summary of the method: as §1

velvetleaf [2] = test: Test A pre-/postemergence greenhouse test; format: in vivo, Abutilon theophrasti; details: for Velvetleaf plant response rating: 0 to 100 scale
Summary of the method: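 Herbicidal effect is a visual injury score given about ten days post-treatment by comparison with untreated controls. Preemergence plots received a directed spray onto sown loam–sand soil; postemergence plants, at the one- to two-leaf stage and 2–10 cm tall, were sprayed at the same time.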

blackgrass = test: Test C pre-/postemergence test; format: in vivo, Alopecurus myosuroides; details: for Plant response rating, Blackgrass: scale 0 to 100, 0 no effect, 100 complete control
Summary of the method: as §1

[3] = 31 g ai/ha, Preemergence, scale 0 to 100
[4] = 62 g ai/ha, preemergence, scale 0 (no effect) to 100 (complete control)
[5] = preemergence, 125 g ai/ha, scale 0 (no effect) to 100 (complete control)

Compound: Cc1cc[n+]([O-])c(S(=O)(=O)Cc2c(C(F)(F)F)nn(C)c2OC(F)F)c1 [Compound 2]
- Plant response rating, Barnyardgrass (barnyardgrass; 31 g ai/ha, scale 0 to 100 (0 no effect, 100 complete control)): 0
- Plant response rating, Barnyardgrass (barnyardgrass; 62 g ai/ha, scale 0 to 100, 0 no effect, 100 complete control, 13 to 15 days): 0
- Plant response rating, Barnyardgrass (barnyardgrass; 125 g ai/ha, scale 0 to 100, 0 no effect, 100 complete control, 13 to 15 days): 55
- Plant response rating, Barnyardgrass (barnyardgrass; 250 g ai/ha, scale 0 to 100 (0 no effect, 100 complete control)): 85
- Cocklebur plant response rating (cocklebur; [3]): 0
- Cocklebur plant response rating (cocklebur; [4]): 0
- Plant response rating (0 to 100), Cocklebur (cocklebur; Postemergence, 31 g ai/ha): 0
- Plant response rating, Cocklebur (cocklebur; Postemergence, 62 g ai/ha): 0
- Plant response rating, Cocklebur (cocklebur; Postemergence, 125 g ai/ha): 0
- Plant response rating, Cocklebur (cocklebur; Postemergence, 250 g ai/ha): 10
- Plant response rating (0 to 100), Cocklebur (cocklebur; Preemergence, 250 g ai/ha): 100
- Cocklebur plant response rating (cocklebur; [5]): 70
- Foxtail, Giant plant response rating (giant foxtail; [3]): 65
- Foxtail, Giant plant response rating (giant foxtail; [4]): 90
- Plant response rating (0 to 100), Foxtail, Giant (giant foxtail; Postemergence, 31 g ai/ha): 0
- Plant response rating, Foxtail, Giant (giant foxtail; Postemergence, 62 g ai/ha): 0
- Plant response rating, Foxtail, Giant (giant foxtail; Postemergence, 125 g ai/ha): 0
- Plant response rating, Foxtail, Giant (giant foxtail; Postemergence, 250 g ai/ha): 50
- Plant response rating (0 to 100), Foxtail, Giant (giant foxtail; Preemergence, 250 g ai/ha): 100
- Foxtail, Giant plant response rating (giant foxtail; [5]): 100
- Foxtail, Green plant response rating (green foxtail; [3]): 100
- Foxtail, Green plant response rating (green foxtail; [4]): 100
- Plant response rating (0 to 100), Foxtail, Green (green foxtail; Postemergence, 31 g ai/ha): 0
- Plant response rating, Foxtail, Green (green foxtail; Postemergence, 62 g ai/ha): 0
- Plant response rating, Foxtail, Green (green foxtail; Postemergence, 125 g ai/ha): 20
- Plant response rating, Foxtail, Green (green foxtail; Postemergence, 250 g ai/ha): 50
- Plant response rating (0 to 100), Foxtail, Green (green foxtail; Preemergence, 250 g ai/ha): 100
- Foxtail, Green plant response rating (green foxtail; [5]): 100
- Ryegrass, Italian plant response rating (Italian ryegrass; 62 g ai/ha): 50
- Plant response rating (0 to 100), Ryegrass, Italian (Italian ryegrass; Postemergence, 31 g ai/ha): 0
- Plant response rating (0 to 100), Ryegrass, Italian (Italian ryegrass; Postemergence, 62 g ai/ha): 0
- Plant response rating, Ryegrass, Italian (Italian ryegrass; Postemergence, 125 g ai/ha): 0
- Plant response rating, Ryegrass, Italian (Italian ryegrass; Postemergence, 250 g ai/ha): 0
- Plant response rating (0 to 100), Ryegrass, Italian (Italian ryegrass; Preemergence, 250 g ai/ha): 100
- Ryegrass, Italian plant response rating (Italian ryegrass; 125 g ai/ha): 50
- Oat, Wild plant response rating (wild oat; [3]): 50
- Oat, Wild plant response rating (wild oat; [4]): 65
- Plant response rating (0 to 100), Oat, Wild (wild oat; Postemergence, 31 g ai/ha): 0
- Plant response rating, Oat, Wild (wild oat; Postemergence, 62 g ai/ha): 0
- Plant response rating, Oat, Wild (wild oat; Postemergence, 125 g ai/ha): 0
- Plant response rating, Oat, Wild (wild oat; Postemergence, 250 g ai/ha): 0
- Plant response rating (0 to 100), Oat, Wild (wild oat; Preemergence, 250 g ai/ha): 95
- Oat, Wild plant response rating (wild oat; [5]): 70
- Cupgrass, Woolly plant response rating (woolly cupgrass; [3]): 65
- Cupgrass, Woolly plant response rating (woolly cupgrass; [4]): 90
- Plant response rating (0 to 100), Cupgrass, Woolly (woolly cupgrass; Postemergence, 31 g ai/ha): 0
- Plant response rating, Cupgrass, Woolly (woolly cupgrass; Postemergence, 62 g ai/ha): 30
- Plant response rating, Cupgrass, Woolly (woolly cupgrass; Postemergence, 125 g ai/ha): 50
- Plant response rating, Cupgrass, Woolly (woolly cupgrass; Postemergence, 250 g ai/ha): 50
- Plant response rating (0 to 100), Cupgrass, Woolly (woolly cupgrass; Preemergence, 250 g ai/ha): 100
- Cupgrass, Woolly plant response rating (woolly cupgrass; [5]): 100
- Bromegrass, Downy plant response rating (downy brome; [3]): 0
- Bromegrass, Downy plant response rating (downy brome; [4]): 40
- Plant response rating (0 to 100), Bromegrass, Downy (downy brome; Postemergence, 31 g ai/ha): 0
- Plant response rating, Bromegrass, Downy (downy brome; Postemergence, 62 g ai/ha): 0
- Plant response rating, Bromegrass, Downy (downy brome; Postemergence, 125 g ai/ha): 0
- Plant response rating, Bromegrass, Downy (downy brome; Postemergence, 250 g ai/ha): 0
- Plant response rating (0 to 100), Bromegrass, Downy (downy brome; Preemergence, 250 g ai/ha): 45
- Bromegrass, Downy plant response rating (downy brome; [5]): 45
- Plant response rating (0 to 100), Velvetleaf (velvetleaf [1]; 31 g ai/ha): 0
- Plant response rating (0 to 100), Velvetleaf (velvetleaf [1]; 62 g ai/ha): 0
- Plant response rating, Velvetleaf (velvetleaf [1]; 125 g ai/ha): 0
- Plant response rating, Velvetleaf (velvetleaf [1]; 250 g ai/ha): 5
- Plant response rating (0 to 100), Soybean (soybean; Postemergence, 31 g ai/ha): 40
- Plant response rating (0 to 100), Soybean (soybean; Postemergence, 62 g ai/ha): 50
- Plant response rating, Soybean (soybean; Postemergence, 125 g ai/ha): 50
- Plant response rating, Soybean (soybean; Postemergence, 250 g ai/ha): 50
- Plant response rating (0 to 100), Soybean (soybean; Preemergence, 250 g ai/ha): 70
- Soybean plant response rating (soybean; [5]): 50
- Galium plant response rating (catchweed bedstraw; [3]): 85
- Galium plant response rating (catchweed bedstraw; [4]): 95
- Plant response rating (0 to 100), Galium (catchweed bedstraw; Preemergence, 250 g ai/ha): 100
- Galium plant response rating (catchweed bedstraw; [5]): 100
- Morningglory plant response rating (morningglory; [3]): 85
- Morningglory plant response rating (morningglory; [4]): 100
- Plant response rating, Morningglory (morningglory; 62 g ai/ha): 5
- Plant response rating, Morningglory (morningglory; 125 g ai/ha): 5
- Plant response rating, Morningglory (morningglory; 250 g ai/ha): 30
- Plant response rating (0 to 100), Morningglory (morningglory; Preemergence, 250 g ai/ha): 100
- Morningglory plant response rating (morningglory; [5]): 100
- Johnsongrass plant response rating (johnsongrass; [3]): 30
- Johnsongrass plant response rating (johnsongrass; [4]): 95
- Plant response rating (0 to 100), Johnsongrass (johnsongrass; Postemergence, 31 g ai/ha): 0
- Plant response rating, Johnsongrass (johnsongrass; Postemergence, 62 g ai/ha): 0
- Plant response rating, Johnsongrass (johnsongrass; Postemergence, 125 g ai/ha): 0
- Plant response rating, Johnsongrass (johnsongrass; Postemergence, 250 g ai/ha): 0
- Plant response rating (0 to 100), Johnsongrass (johnsongrass; Preemergence, 250 g ai/ha): 100
- Johnsongrass plant response rating (johnsongrass; [5]): 100
- Corn plant response rating (corn; [3]): 0
- Corn plant response rating (corn; [4]): 5
- Plant response rating (0 to 100), Corn (corn; Postemergence, 31 g ai/ha): 0
- Plant response rating, Corn (corn; Postemergence, 62 g ai/ha): 0
- Plant response rating, Corn (corn; Postemergence, 125 g ai/ha): 0
- Plant response rating, Corn (corn; Postemergence, 250 g ai/ha): 0
- Plant response rating (0 to 100), Corn (corn; Preemergence, 250 g ai/ha): 85
- Corn plant response rating (corn; [5]): 45
- Velvetleaf plant response rating (velvetleaf [2]; Postemergence, 125 g ai/ha, 0 is no effect, 100 is complete control): 60
- Velvetleaf plant response rating (velvetleaf [2]; Postemergence, 500 g ai/ha, 0 is no effect, 100 is complete control): 80
- Velvetleaf plant response rating (velvetleaf [2]; Preemergence, 125 g ai/ha, 0 no effect, 100 complete control): 70
- Plant response rating, Velvetleaf (velvetleaf [2]; Preemergence, 500 g ai/ha, 0 to 100 scale where 0 is no effect and 100 is complete control): 90
- Blackgrass plant response rating (blackgrass; [3]): 60
- Blackgrass plant response rating (blackgrass; [4]): 80
- Plant response rating (0 to 100), Blackgrass (blackgrass; Postemergence, 31 g ai/ha): 0
- Plant response rating, Blackgrass (blackgrass; Postemergence, 62 g ai/ha): 0
- Plant response rating, Blackgrass (blackgrass; Postemergence, 125 g ai/ha): 0
- Plant response rating, Blackgrass (blackgrass; Postemergence, 250 g ai/ha): 0
- Plant response rating (0 to 100), Blackgrass (blackgrass; Preemergence, 250 g ai/ha): 100
- Blackgrass plant response rating (blackgrass; [5]): 80
